The subject of experiment [1] is Citric Acid-Induced Cough in Guinea Pigs. In words: Citric Acid Induced Cough Model (direct antitussive activity). It is filed as in vivo, guinea pig. As to conditions: conscious guinea pigs, inhaled citric acid (0.4% for 1 minute) cough challenge; FIG. 4. As for the experimental part: The directed antitussive activity of the compound in question if first assessed, by a 10 to 30 minute pretreatment period by intraperitoneal injection or a 1 hour pretreatment period for oral administration. The animals (guinea pigs) are then subjected to an inhaled citric acid-induced cough challenge. Inhalation of citric acid (CA; 0.4% for 1 minute) induced 11 to 15 coughs during the exposure and 12-minute monitoring period in conscious guinea pigs.

For experiment [2], the system named is Antigen-Induced Hypertussive Activity to Citric Acid in Guinea Pigs. The experiment is described as follows: Antigen-Induced Hypertussive Model. Format: in vivo, guinea pig. The following applies: sensitized guinea pigs exposed to inhaled ovalbumin. As for the experimental part:
The effects of the compound are then assessed on the hypertussive response that occurs 72 hours post aerosol exposure to antigen or LTD4 exposure. Treatment of the animals occurs with the drug prior and/or after antigen or LTD4 challenge, but not on the day of citric acid challenge. Inhalation of citric acid (CA; 0.4% for 1 minute) induced 11 to 15 coughs during the exposure and 12-minute monitoring period in conscious guinea pigs.

Experiment [3] deals with LTD4-induced hypertussive response in the Guinea Pig. The experiment is described as follows: LTD4-Induced Hypertussive Model. As to conditions: oral 30 mg/kg b.i.d.; LTD4 inhalation 10 ug/ml for 1 minute; 72 hours after exposure. It is filed as in vivo. As for the experimental part:
The effects of the compound are then assessed on the hypertussive response that occurs 72 hours post aerosol exposure to antigen or LTD4 exposure. Treatment of the animals occurs with the drug prior and/or after antigen or LTD4 challenge, but not on the day of citric acid challenge. Similarly, inhalation of LTD4 (10 ug/ml for 1 minute) increased cough incidence and airway esoinophiles 72 hours after exposure. Oral treatment with Compound I (30 mg/kg, b.i.d.), blocked the LTD4-induced esoinophilia, and normalized the cough response, as shown in FIG. 5 herein.

As for `COc1nccc(-c2c(-c3ccc(F)cc3)ncn2[C@H]2CC[C@H](O)CC2)n1` [Compound I, trans-1-(4-Hydroxycyclohexyl)-4-(4-fluorophenyl)-5-[(2-methoxy)pyrimidin-4-yl]imidazole], the direct antitussive effect entry in experiment [1] is “no direct antitussive effect”. Besides, the airway eosinophilia entry in experiment [2] (bronchoalveolar lavage) was “reduce airway eosinophilia”. The “hypertussive state (citric acid-induced cough incidence)” value in experiment [2] (citric acid challenge 72 hours post antigen) is “normalizes the hypertussive state”. In experiment [3], the LTD4-induced eosinophilia result is recorded as “blocked” and the cough response entry is recorded as “normalized”.

Source of the values: patent publication US20040097473A1, “Use of p38 inhibitors for the treatment of smoke inhalation” (priority 2003, published 2004).
